Patent US10301332B2, “Method of selectively releasing nitric oxide depending on change in pH using calcium phosphate” (INSTITUTE FOR BASIC SCIENCE, priority 2015, dated 2019)

Assay: Release of nitric oxide depending on pH (Sievers NOA nitric oxide detector)
Type: physicochemical
Settings: 1 mg in 40 ml DPBS, pH 7.4 (FIG. 8)
Method: FIGS. 8 to 10 illustrate results obtained using a nitric oxide detector (Sievers NOA, GE analytical instruments, USA) in order to confirm a nitric oxide release behavior of the synthesized CaP—NO depending on the change in pH. FIG. 8 illustrates a result of observing the nitric oxide release behavior after adding 1 mg of AEATS to 40 ml of Dulbecco's Phosphate-Buffered Saline (DPBS, pH 7.4). […] FIG. 9 illustrates a result of confirming a nitric oxide release behavior of CaP—NO depending on a change in pH. […] When the pH was increased to 7.4 again, nitric oxide was not released, and as a result of observing the nitric oxide release behavior while repeatedly changing the pH, it was confirmed that when the pH was 5, nitric oxide was released.

## CO[Si](CCCNCCN)(OC)OC [AEATS, N-(2-aminoethyl)-3-aminopropyl trimethoxysilane]
  nitric oxide release behavior: a large amount of nitric oxide was released
